This note sets out measurements from PubChem BioAssay (NCI).

What all share (test): NCI anticancer screen, dose series, 48 h
In test [1] the test system is A549 NSCLC.
For test [2], the system named is HS 578T breast.
Test [3] relates to LOX IMVI melanoma.
Test [4] deals with MALME-3M melanoma.
In test [5] the test system is MDA-N.
The test system of test [6] is OVCAR-3 ovarian.
The subject of test [7] is OVCAR-5 ovarian.
In test [8] the test system is SW-620 colon.
In test [9] the test system is TK-10 renal.
Test [10] concerns SK-MEL-2 melanoma.

“And” between values parts separate entries of the source, which are not always exact repeats. Identical values can stand only once.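 Grown in 96-well plates, cells were treated for 48 hours with each compound at five concentrations. Insufficient inhibition: endpoint recorded as highest concentration tested. GI50 is the concentration that inhibits growth by half. Definition used: TGI = concentration required for complete inhibition of growth.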 Where a SMILES comes first, the peptide text is derived from it. [ ]: non-standard residue; d: D form. pGlu = O=C1CC[CH](C(=O)O)N1

Consider `CC(NC(=O)C(Cc1cnc[nH]1)NC(=O)C1CCC(=O)N1)C(N)=O` (stereo not drawn) ([pGlu]-His-Ala-NH2; configuration not given here), for which the TGI in test [1], in test [2], in test [3], in test [4], in [5] and in [6] was over 100 µM throughout. Further, the TGI in test [7], in test [8] and in test [9] was over 100 µM in each case.
Turning to `CCCCCCCC(=O)OCC(C[As](=O)(O)O)OC(=O)CCCCCCC` (configuration not stated), the TGI was determined as 53.3 µM in test [1], 28.5 µM in test [4] and 29.1 µM in [8].
With `COc1cc([C@@H]2c3cc4c(cc3[C@@H](N=Cc3ccc(C(=O)O[C@@H](C(=O)O[C@H]5C[C@@]6(O)[C@@H](OC(=O)c7ccccc7)[C@@H]7[C@]8(OC(C)=O)CO[C@@H]8C[C@H](O)[C@@]7(C)C(=O)[C@H](OC(C)=O)C(=C5C)C6(C)C)[C@@H](NC(=O)c5ccccc5)c5ccccc5)cc3)[C@H]3COC(=O)[C@H]23)OCO4)cc(OC)c1O`, the TGI in test [1] is over 50 µM; in [2] it was over 50 µM; in [3], over 50 µM; in test [4] it was over 50 µM; in test [5] it was 0.0663 µM; in [6], 0.164 µM. For the same compound, the TGI in [8] and in test [9] was over 50 µM each time.
Regarding `N#Cc1ccc(Nc2cnc3ccc(N)cc3n2)cc1`, the TGI in test [1], in test [3], in [4], in test [6], in [7] and in [10] was over 100 µM in each case. Further, the TGI in test [8] and in [9] was over 100 µM in each case.
Regarding `CC(O)c1cc2c(s1)C(=O)c1scc(C(C)O)c1C2=O` (configuration not stated), the TGI in test [1] was 3.98 µM; in test [3], over 100 µM; in test [4], 0.35 µM; in test [5], 0.421 µM; in [7], 3.37 µM; in test [10], 0.606 µM. For the same compound, the TGI was over 100 µM in test [8] and 3.37 µM in [9].
Turning to `C=C1C(=O)O[C@@H]2OC3(C)CCC4C(C)CCC1C42OO3` (some centres not stated), the GI50 in test [1] was 7.23 µM; in test [3], 3.55 µM; in test [4], 4.13 µM; in test [6], 7.42 µM; in [7], 24.5 µM; in test [10] it was 3.79 µM. Further, in [8], the GI50 was 3.44 µM. Also, the TGI in test [1] was 23.1 µM and 18.7 µM; in test [3], 12.9 µM and 8.11 µM; in test [6], 19.6 µM and 10 µM; in [7] it was 39.7 µM and 29.3 µM; in test [10] it was 15.4 µM and 5.51 µM; in [8], 13.6 µM and 10.8 µM.
As to `O=C1C2=C(CCCCC2)C2CCCCC12O` (configuration not stated), the TGI in [1], in test [3], in test [4], in test [6], in [10] and in test [8] was over 100 µM each time. Moreover, in test [9], the TGI was over 100 µM.
In the case of `Cc1c(O)c(=O)ccn1CCc1c[nH]c2ccccc12`, the TGI in [1] is over 100 µM; in [2], 54 µM; in [3], 17 µM; in test [4], 55.4 µM; in test [5], over 100 µM; in [7], over 100 µM. Moreover, the TGI in test [8] and in test [9] was over 100 µM each time.
As to `COc1cc(/C=c2/c3ccccc3n3c2cc(-c2ccccc2)[n+]3C)cc(OC)c1OC`, the TGI is over 100 µM in test [1]; 12.6 µM in test [3]; 5.67 µM in test [4]; 34.6 µM in test [5]; 6.82 µM in [6]; 21.4 µM in test [7]. Further, the TGI in test [10] came out at 8.06 µM; in test [8] it was 14.5 µM; in test [9], 17.4 µM.
Consider `Cc1cc(C)c2c(=N)c3ccccc3n(CCCCCCn3c4ccccc4c(=N)c4c(C)cc(C)nc43)c2n1`, for which the TGI in test [1] was determined as 3.03 µM; in test [4], 2.68 µM; in test [6], 3.09 µM; in test [7], 3.49 µM; in [10], 2.97 µM; in test [8] it was 0.34 µM. The same compound displayed a TGI in test [9] of 3.19 µM.
On to `C/C(=N\NC(=O)c1cccnc1)c1cccc(/C(C)=N/NC(=O)c2cccnc2)n1.CC(=O)[O-].CC(=O)[O-].[Zn+2]`, for which the TGI is over 57.4 µM in test [1]; over 32.5 µM in [3]; over 79.9 µM in test [4]; over 100 µM in [6]; over 100 µM in test [7]; over 54.9 µM in test [10]. Moreover, the TGI in test [8] and in test [9] was over 100 µM each time. The GI50 is 19.3 µM in [4] and 0.843 µM in [6].
`Clc1ccc2nc(CC3CCCC3)[nH]c2c1`: the TGI in [1] came to 60.8 µM; in [3] it was 29.9 µM; in test [4] it was 45.1 µM; in test [5], 38.5 µM; in test [6] it was 22.7 µM; in [7], 67.5 µM. Further, the TGI in test [10] was 41.2 µM; in test [8], over 100 µM; in [9], 70.2 µM.
`Cc1ccc(C(=O)C2=CN=C3C(=O)N(c4ccccc4)N(C)C3(C)C2=N)cc1` (configuration not stated): the TGI in test [1], in test [3], in test [4], in [5], in [6] and in test [7] was over 100 µM each time. In addition, the TGI in [10], in test [8] and in [9] was over 100 µM each time.
Consider `COC12OC3CC4(C)C(=CC3OC(OC(C)C1O)C2O)CCC1C4CCC2(C)C(c3ccc(=O)oc3)CCC12O` (configuration not stated), for which the TGI turned out to be 0.00166 µM in test [1]; 0.00281 µM in test [3]; 0.00391 µM in test [4]; 0.00434 µM in test [5]; 0.00639 µM in test [6]; 0.00327 µM in [7]. The TGI in [10] was 0.00448 µM; in [8] it was 0.00731 µM; in test [9] it was 0.00216 µM.
On to `CN1CCN(/C(N)=C(\C#N)C(=O)Nc2ccccc2)CC1`, for which the TGI in test [1], in test [3], in test [5], in test [6], in [7] and in test [10] was over 100 µM throughout. For the same compound, the TGI in [8] was over 100 µM.
On to `COc1ccc(NCc2cnc3nc(N)nc(N)c3c2C)cc1`, for which the TGI in test [1], in test [2], in test [3], in test [4], in test [6] and in test [7] was over 100 µM throughout. The TGI in test [10], in test [8] and in test [9] was over 100 µM each time.
`CC(C)=CCCC1(Sc2ccccc2)C(=O)OCC1C=C(C)C` (configuration not stated): the TGI stood at 78.1 µM in test [1]; 30.1 µM in [3]; 40.7 µM in test [4]; 66.1 µM in [5]; 42.8 µM in test [6]; 59 µM in test [7]. Further, the TGI in [10] was 55.8 µM; in test [8] it was over 100 µM; in test [9], over 100 µM.
Take `O=C(NN1C(=O)CSC1c1ccco1)c1ccncc1` (configuration not stated): the TGI in [1], in test [4], in test [5], in test [6], in test [7] and in test [10] was over 100 µM each time. Also, the TGI in test [8] and in test [9] was over 100 µM in each case.
Regarding `CCC/C(Cl)=N\OC(=O)Nc1ccc(F)c([N+](=O)[O-])c1`, the TGI in test [1] turned out to be 66.4 µM; in test [3] it was 66.8 µM; in test [4], 22.8 µM; in test [5] it was 47.6 µM; in test [6], 28.9 µM; in [7], 44.4 µM. In addition, the TGI in test [10] amounted to 27.3 µM; in [8], 39.6 µM; in test [9], 32 µM.
For `CCOC(=O)C1=CC(C)(C(=O)OCC)Nc2c(nc(SC)n(C)c2=O)N1` (configuration not stated), the TGI in test [1], in [3], in test [4], in test [5], in [6] and in test [7] was over 10 µM in each case. For the same compound, the TGI in [10], in test [8] and in test [9] was over 10 µM in each case.
On to `C=CC[C@@H]1C=C[C@@H](C(=O)OC)n2c(=O)n(-c3ccccc3)c(=O)n21`, for which the TGI in test [2], in [3], in [6], in test [7], in test [8] and in test [9] was over 100 µM in each case.
With `COc1c(-c2cccs2)oc2c(CC(=O)O)cccc2c1=O`, the TGI in test [1], in [4], in test [5], in test [6], in [7] and in test [10] was over 100 µM each time. The TGI in [9] was over 100 µM.
Turning to `CCOC(=O)c1nc2cc(C(F)(F)F)ccc2nc1Nc1ccc(F)cc1`, the TGI in [1], in test [3], in test [4], in test [5], in test [6] and in test [7] was over 100 µM each time. Further, the TGI in test [10], in test [8] and in [9] was over 100 µM throughout.
Consider `Cn1cc(-c2nc(-c3c[nH]c4ccncc34)cs2)c2cc(F)ccc21`, for which the GI50 in test [1] was 1.85 µM; in test [2], 2.21 µM; in [4] it was 1.57 µM; in [6] it was 1.94 µM; in test [7], 1.68 µM; in test [10], 1.92 µM. Besides, the GI50 in test [8] was 1.65 µM; in test [9] it was 2.11 µM. The TGI is 3.57 µM in [1]; 4.74 µM in test [2]; 3.06 µM in [4]; 3.69 µM in test [6]; 3.11 µM in test [7]; 3.58 µM in [10]. The TGI in [8] came out at 3.4 µM; in [9], 3.69 µM.
As to `CC(=O)Nc1ccc(-c2nnc(SCC(=O)Nc3cccc([N+](=O)[O-])c3)o2)cc1`, the TGI in test [1] amounted to 46.3 µM; in test [3] it was 23 µM; in test [4], 23.9 µM; in test [6], 40.5 µM; in test [7] it was 50.2 µM; in test [10] it was 37.2 µM. Further, the TGI in [8] amounted to 44 µM; in test [9] it was 67.5 µM.
Consider `COc1cc(/C=C2\N=C(C)N(n3c(-c4ccccc4)nc4ccccc4c3=O)C2=O)cc(OC)c1OC`, for which the TGI in test [1], in test [2], in [3], in test [4], in test [5] and in test [8] was over 100 µM in each case. This compound returned a TGI in test [9] of over 100 µM.
On to `Cc1oncc1NC1=CC(=O)C(=O)c2ccccc21`, for which the TGI in [1] is 15.7 µM; in [2], 71.5 µM; in test [3], 10.5 µM; in test [4] it was 8.69 µM; in [6], 4.97 µM; in [7], 26.5 µM. Moreover, the TGI in [8] amounted to 17.1 µM; in [9] it was 45.2 µM.
For the compound `CNc1ncnc2c1nnn2C`, the TGI in [1], in test [3], in test [4], in [5], in [6] and in [10] was over 100 µM in each case. In addition, the TGI in test [8] and in test [9] was over 100 µM in each case.
In the case of `COc1ccc(CCNC(=O)CCCCCO)cc1OC`, the TGI in test [1], in test [2], in test [6], in [7], in test [10] and in test [8] was over 100 µM throughout. Also, in [9], the TGI was over 100 µM.
For `COc1cc2cc3c4c(cc(OC)c(OC)c4c2cc1OC)CCN3C(=O)N(C)C`, the TGI in [1], in [3], in test [4], in test [6], in [7] and in [10] was over 100 µM throughout. Also, the TGI was over 100 µM in test [8] and over 10 µM in test [9].
